In patent US20040235098A1, “Sulfotransferase sequence variants” (Mayo Foundation for Medical Education and Research, a …, priority 1998, published 2004):

What was measured:
SULT1A3 [1] = biological target: T1, SULT1A3 (Homo sapiens, UniProt P0DMM9); assay: Substrate kinetics of recombinant SULT1A3; format: biochemical; details: 3.9 to 3000 μM 4-nitrophenol, mean±SEM of nine
T1 construct: made in house; host or cells: COS-1 cells, pCR3.1 vector, unpurified cytosol

SULT1A2 = details: 100 μM 4-nitrophenol; cytosol from six pooled liver samples; three attempts
Protocol: Human hepatic “surgical waste” tissue was obtained from 61 patients undergoing clinically-indicated hepatectomies or open hepatic biopsies and was stored at −80° C. These frozen hepatic tissue samples were homogenized in 5 mM potassium phosphate buffer, pH 6.5, and centrifuged at 100,000×g for 1 hr to obtain high-speed supernatant (HSS) cytosolic preparations. […] All tissue samples were obtained under guidelines approved by the Mayo Clinic Institutional Review Board.
Unless otherwise stated, concentrations of 4-nitrophenol and PAPS were 4 μM and 0.4 μM, respectively. […] Enzyme activity was expressed as nmoles of sulfate conjugated product formed per hr of incubation. Protein concentrations were measured by the dye-binding method of Bradford with bovine serum albumin (BSA) as a standard.
Therefore, 100 μM 4-nitrophenol was used as a substrate with cytosol from six pooled liver samples in an attempt to measure SULT1A2 activity.

SULT1A2*2 [2] = biological target: T2, SULT1A2*2 (Homo sapiens, UniProt P50226, I7T/N235T); assay: Substrate kinetics of recombinant SULT1A2*2; format: biochemical; details: mean±SEM of nine
T2 construct: made in house; host or cells: COS-1 cells, pCR3.1 vector, unpurified cytosol
Protocol: (§1) Res. Commun., 198:1119-1127 (1994).
(§2) Expression constructs for each of the common (frequencies≧1%) allozymes for SULT1A1 and SULT1A2 were used to transfect COS-1 cells. Selected biochemical and physical properties of the expressed enzymes were then determined. Those properties included apparent Km values for the two cosubstrates for the enzyme reaction (4-nitrophenol and PAPS); thermal stability; and sensitivity to inhibition by DCNP. The substrate kinetic experiments were performed in two steps. Initially a wide range of concentrations of 4-nitrophenol that varied over at least three orders of magnitude was tested, followed by detailed study of concentrations close to the apparent Km value for that allozyme. […] Data from these experiments were then used to construct double inverse plots that were used to calculate apparent Km values (Table 5).

SULT1A2*1 [3] = biological target: T3, SULT1A2*1 (Homo sapiens, UniProt P50226); assay: DCNP inhibition of recombinant SULT1A2*1 (COS-1 cell cytosol); format: biochemical; details: 100 μM 4-nitrophenol, mean±SEM of nine determinations
T3 construct: made in house; host or cells: COS-1 cells, pCR3.1 vector, unpurified cytosol
Protocol: as §1
(§3) Finally, sensitivity of the recombinant proteins to inhibition by DCNP was determined. Sixteen different concentrations of DCNP, ranging from 0.01 to 1000 μM, were tested with each recombinant allozyme.

SULT1A2*2 [4] = biological target: T2, SULT1A2*2; assay: DCNP inhibition of recombinant SULT1A2*2 (COS-1 cell cytosol); format: biochemical; details: 3000 μM 4-nitrophenol, mean±SEM of nine determinations
Protocol: as §1, §3

SULT1A1*1 [5] = biological target: T4, SULT1A1*1 (Homo sapiens, UniProt P50225); assay: DCNP inhibition of recombinant SULT1A1*1 (COS-1 cell cytosol); format: biochemical; details: 4 μM 4-nitrophenol, mean±SEM of nine determinations
T4 construct: made in house; host or cells: COS-1 cells, pCR3.1 vector, unpurified cytosol
Protocol: as §1, §3

SULT1A1*3 [6] = biological target: T5, SULT1A1*3 (Homo sapiens, UniProt P50225); assay: DCNP inhibition of recombinant SULT1A1*3 (COS-1 cell cytosol); format: biochemical; details: 4 μM 4-nitrophenol, mean±SEM of nine determinations
T5 construct: made in house; host or cells: COS-1 cells, pCR3.1 vector, unpurified cytosol
Protocol: as §1, §3

TS PST = details: thermostable phenol-preferring form; cited from earlier work
SULT1A2*3 [7] = biological target: T6, SULT1A2*3 (Homo sapiens, UniProt P50226, P19L); assay: DCNP inhibition of recombinant SULT1A2*3 (COS-1 cell cytosol); format: biochemical; details: 50 μM 4-nitrophenol, mean±SEM of nine determinations
T6 construct: made in house; host or cells: COS-1 cells, pCR3.1 vector, unpurified cytosol
Protocol: as §1, §3

TL PST = TL PST (Homo sapiens, UniProt P0DMM9); details: thermolabile monoamine-preferring form; cited from earlier work
SULT1A3 [8] = biological target: T1, SULT1A3; assay: DCNP inhibition of recombinant SULT1A3 (COS-1 cell cytosol); format: biochemical; details: 3000 μM 4-nitrophenol, mean±SEM of nine determinations
Protocol: as §1, §3

SULT1A1*3 [9] = biological target: T5, SULT1A1*3; assay: Substrate kinetics of recombinant SULT1A1*3; format: biochemical; details: 4 μM 4-nitrophenol, mean±SEM of nine, read-out: Apparent Km PAPS
Protocol: as §1, §2

SULT1A1*1 [10] = biological target: T4, SULT1A1*1; assay: Substrate kinetics of recombinant SULT1A1*1; format: biochemical; details: 4 μM 4-nitrophenol, mean±SEM of nine, read-out: Apparent Km PAPS
Protocol: as §1, §2

SULT1A1*2 = SULT1A1*2 (Homo sapiens, UniProt P50225, R213H/V223M); assay: Substrate kinetics of recombinant SULT1A1*2; format: biochemical; details: 4 μM 4-nitrophenol, mean±SEM of nine, read-out: Apparent Km PAPS
Protocol: as §1, §2

SULT1A2*3 [11] = biological target: T6, SULT1A2*3; assay: Substrate kinetics of recombinant SULT1A2*3; format: biochemical; details: 50 μM 4-nitrophenol, mean±SEM of nine, read-out: Apparent Km PAPS
Protocol: as §1, §2

SULT1A2*1 [12] = biological target: T3, SULT1A2*1; assay: Substrate kinetics of recombinant SULT1A2*1; format: biochemical; details: 100 μM 4-nitrophenol, mean±SEM of nine
Protocol: as §1, §2

T6 sequence (P50226 whole entry P19L): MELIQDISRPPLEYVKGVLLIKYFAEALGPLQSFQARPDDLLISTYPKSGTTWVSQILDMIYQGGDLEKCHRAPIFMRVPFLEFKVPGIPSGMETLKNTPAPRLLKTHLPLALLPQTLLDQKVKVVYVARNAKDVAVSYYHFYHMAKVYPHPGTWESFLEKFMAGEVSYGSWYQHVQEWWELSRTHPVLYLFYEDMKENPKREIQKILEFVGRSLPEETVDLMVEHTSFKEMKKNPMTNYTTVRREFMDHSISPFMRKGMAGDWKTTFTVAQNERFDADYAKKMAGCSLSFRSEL
T2 sequence (P50226 whole entry I7T/N235T): as the sequence (P50226 whole entry P19L) above, with I7T, L19P, N235T counted along it
T1 sequence (P0DMM9 whole entry): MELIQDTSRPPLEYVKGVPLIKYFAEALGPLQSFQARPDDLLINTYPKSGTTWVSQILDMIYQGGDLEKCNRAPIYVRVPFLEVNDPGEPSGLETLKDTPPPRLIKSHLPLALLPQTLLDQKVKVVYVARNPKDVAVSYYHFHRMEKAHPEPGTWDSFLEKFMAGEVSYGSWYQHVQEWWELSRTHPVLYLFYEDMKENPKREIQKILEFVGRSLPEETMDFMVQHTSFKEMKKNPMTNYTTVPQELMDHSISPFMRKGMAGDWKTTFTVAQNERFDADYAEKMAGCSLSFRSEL
Chain of SULT1A1*2 (P50225 whole entry R213H/V223M): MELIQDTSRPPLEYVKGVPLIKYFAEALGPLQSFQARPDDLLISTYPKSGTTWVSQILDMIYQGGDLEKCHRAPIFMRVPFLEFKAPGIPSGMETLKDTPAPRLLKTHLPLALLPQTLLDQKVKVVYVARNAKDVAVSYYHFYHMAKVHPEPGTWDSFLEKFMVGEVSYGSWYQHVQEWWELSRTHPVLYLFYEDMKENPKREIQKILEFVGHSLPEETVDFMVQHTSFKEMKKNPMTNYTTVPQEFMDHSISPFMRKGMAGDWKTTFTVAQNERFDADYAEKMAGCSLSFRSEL
Chain of TL PST (P0DMM9 whole entry): as the sequence (P0DMM9 whole entry) above

## O=[N+]([O-])c1ccc(O)cc1 [4-nitrophenol]
SULT1A3 [1]
  Apparent Km 4-Nitrophenol: very high
SULT1A2
  SULT1A2 activity (sulfation of 4-nitrophenol): no activity was detected
SULT1A2*2 [2]; 1.0 to 1000 μM 4-nitrophenol
  Apparent Km 4-Nitrophenol: very high

## O=[N+]([O-])c1cc(Cl)c(O)c(Cl)c1 [DCNP, 2,6-dichloro4-nitrophenol]
SULT1A2*1 [3]
  IC50: 6.94 ± 0.55 µM
SULT1A2*2 [4]
  IC50: 44.4 ± 1.5 µM
SULT1A1*1 [5]
  IC50: 1.44 ± 0.11 µM
SULT1A1*3 [6]
  IC50: 1.32 ± 0.27 µM
TS PST
  sensitivity to inhibition by DCNP: sensitive to inhibition
SULT1A2*3 [7]
  DCNP Inhibition IC50: most
  IC50: 0.97 ± 0.001 µM
TL PST
  sensitivity to inhibition by DCNP: relatively insensitive
SULT1A3 [8]
  DCNP Inhibition IC50: least sensitive to inhibition
  IC50: 86.9 ± 6 µM

## Nc1ncnc2c1ncn2[C@@H]1O[C@H](COP(=O)(O)OS(=O)(=O)O)[C@@H](OP(=O)(O)O)[C@H]1O [PAPS, 3′-phosphoadenosine-5′-phosphosulfate]
SULT1A1*3 [9]
  Km: 0.17 ± 0.02 µM
SULT1A2*2 [2]; 3000 μM 4-nitrophenol, read-out: Apparent Km PAPS
  Km: 0.5 ± 0.001 µM
SULT1A1*1 [10]
  Km: 1.21 ± 0.02 µM
SULT1A1*2
  Km: 0.98 ± 0.03 µM
SULT1A2*3 [11]
  Km: 0.28 ± 0.006 µM
SULT1A2*1 [12]
  Apparent Km PAPS: approximately an order of magnitude lower
SULT1A2*1 [12]; read-out: Apparent Km PAPS
  Km: 0.05 ± 0.001 µM
